Results from patent US6693063B2, “Herbicidal composition” (Aventis CropScience GmbH, priority 2000, dated 2004).

Test system: monocotyledonous and dicotyledonous weeds
Test: Greenhouse post-emergence herbicidal test, effect rated visually against untreated controls
Assay type: in vivo
Description: Seeds or rhizome pieces of monocotyledonous and dicotyledonous weeds were placed in sandy loam soil in plastic pots, covered with soil and grown in a greenhouse under good growth conditions. Three weeks after seeding, the test plants were treated in the three-leaf stage. The compositions of the invention, formulated as wettable powders or as emulsion concentrates, were sprayed onto the green parts of the plants at various application rates of 600-800 l of water/ha (converted). The test plants were allowed to stand in the greenhouse under optimum growth conditions for about 3 to 4 weeks, and the effect of the preparations was then rated visually in comparison to untreated controls. The compositions according to the invention have good herbicidal activity against harmful plants of economic importance.

Row | Structure (SMILES) | herbicidal activity compared with a commercial formulation of bromoxynil-octanoate (300 and 600 g of AS/ha as microcapsule suspension (10%, Formulation Example 2), applied with a surfactant such as Genapol X 150, Genapol X 200, Sapogenat T130, T 200, T 300, T 400, T 500 or Genapol O 200 at 150, 300 and 600 g of surfactant/ha) | herbicidal activity compared with bromoxynil-Na applied with a surfactant having a lower content of ethylene oxide units (Genapol® 060, 6 ethylene oxide units) (bromoxynil-Na 300 g/ha in combination with a surfactant such as Genapol X 150, Genapol X 200, Sapogenat T130, T 200, T 300, T 400, T 500 or Genapol O 200 at 50, 100, 300 and 60 g/ha, post-emergence, three-leaf stage, rated after about 3 to 4 weeks)
1 | CCCCCCCC(=O)Oc1c(Br)cc(C#N)cc1Br [Bromoxynil-octanoate, bromoxynil-octanoate] | considerably higher | 
2 | N#Cc1cc(Br)c([O-])c(Br)c1.[Na+] [bromoxynil-Na, bromoxynil-sodium] |  | considerably higher
